Experimental data reported in patent US11647737B2, “Genetically modified rabbit expressing an exogenous protein in milk” (APPLIED STEMCELL, INC., priority 2016, dated 2023).
Where two headings read alike, the source gives them in different places.

Legend:
[1] = test system: beta-casein locus in rabbit embryos; assay: td-Tomato knock-in efficiency at the beta-casein locus in rabbit embryos; format: cell-based; details: RS-1 7.5 μM; control 8.3%; P<0.05
Protocol: A mixture containing 100 ng/μl donor DNA, 100 ng/μl Cas9 mRNA and 6 ng/μl sgRNA were used for cytoplasm microinjection. Embryos were subsequently cultured to blastocyst stages, genomic DNA extracted, and subjected to PCR using primer sets described in FIG. 4. Embryos that are positive containing the desired band size for both primer sets LF1/LR1 and RF1/RR1 are considered putative knock-in.

[2] = test system: ROSA26 like locus (RLL) in rabbit embryos; details: for knock-in rate: 20 h, control 4.8%
Protocol: We first tested the effects of SCR7 and RS-1 on Cas9 mediated HDR at a ROSA26 like locus (RLL) in the rabbit genome (FIG. 6). Donor template DNAs were co-microinjected with Cas9 mRNA and sgRNA for RLL locus. After injection, the embryos were treated for 20 h in a serial concentration of SCR7: 0 μM (control), 20 μM, 40 μM, and 80 μM, or in RS-1 at 0 μM (control), 7.5 μM, and 15 μM.

β-casein (rbCSN2) = assay: In vitro validation of sgRNAs in microinjected rabbit embryos (PCR and sequencing of blastocysts), β-casein; format: cell-based; details: 100 ng/μl Cas9 mRNA and 6 ng/μl sgRNA
Protocol: All animal maintenance, care and use procedures were reviewed and approved by the University Committee on the Use and Care of Animals (UCUCA) of the University of Michigan. Embryos were harvested from superovulated embryo donor female rabbits as previously described. Microinjection was performed on embryos 19-21 h post insemination using a micromanipulator under the inverted microscope equipped with a differential interference contrast (DIC) device. A mixture containing 100 ng/μl Cas9 mRNA and 6 ng/μl sgRNA were used for cytoplasmic microinjection. The injected embryos were washed and cultured in vitro for 3-4 days until they reached blastocyst stage.
Blastocyst stage embryos were lysed individually and genomic DNA extracted. To get better PCR reaction, the whole genome was replicated using a REPLI-g® Mini Kit (Qiagen, Germantown, Md.) following the manufacturer's protocol with slight modification. PCR products using primer set LF1/RR1 were purified and sequenced for detection of indel mutations proximate to the sgRNA target sequence (FIG. 4). On the chromatographic curves, peaks on peaks approximate the targeting site indicate an indel event. Mutation Surveyor (Softgenetics, State College, Pa.) was used to analyze sequencing results.
In total, we performed microinjection to 102 pronuclear stage embryos with sgRNA#3 targeting β-casein (rbCSN2) (see Table 1). […]

`O=C(Nc1ccc(Br)cc1)c1ccc(Br)c(S(=O)(=O)NCc2ccccc2)c1` [RS-1] was tested, and the “% KI (knock-in rate)” value [1] was 28.9%, the knock-in rate ([2]; RS-1 7.5 μM) was 26.1% and the knock-in rate ([2]; RS-1 15 μM) was 5.4%.

`O=c1[nH]c(=S)[nH]c(N=Cc2ccccc2)c1N=Cc1ccccc1` [SCR7] was tested, and the overall knock-in efficiency ([2]; embryos treated 20 h with SCR7 20 μM, 40 μM, 80 μM, control 7.1%) was 7.7-9.4% and the “effect on overall knock-in efficiency” value ([2]; embryos treated 20 h with SCR7 20-80 μM vs control) was “no significant effects”.

For “sgRNA#3: sgRNA targeting rabbit β-Casein intron 1, GGATATCATGTTAGAGTGCCTGG (SEQ ID NO: 1) (listed as DNA, chemistry not given here; the letters are possibly those of the target site)”, the “Bi-allelic mutations (%)” value (β-casein (rbCSN2)) was 36% and the “blastocysts with insertions or deletions at or proximate the targeted cleavage site (#mutated, %)” value (β-casein (rbCSN2); 56 blastocysts sequenced) was 63%.
